Activity calls are given as the source filed them. How the calls were made is not given here.
System: CCRIS mutagenicity, Ames/micronucleus/aberration tests
Assay: CCRIS mutagenicity studies
[1] = Test System: AMES SALMONELLA TYPHIMURIUM, Strain/Indicator: TA98, Metabolic Activation: NONE, Method: PREINCUBATION
[2] = Test System: AMES SALMONELLA TYPHIMURIUM, Strain/Indicator: TA100, Metabolic Activation: NONE, Method: PREINCUBATION

Measured: mutagenic call

C=CC(=C)CCC=C(C)C
inactive: End Point: E. coli, Strain/Indicator: WP2uvrA/pKM101, Metabolic Activation: None, Method: Preincubation inactive; negative | End Point: E. coli, Strain/Indicator: WP2uvrA/pKM101, Metabolic Activation: Rat, Liver, S-9, Aroclor 1254 (10%), Method: Preincubation inactive; negative | End Point: In vivo micronucleus, Test System: Micronucleated normochromatic erythrocytes, Species: Mouse, Strain/Sex: B6C3F1 / Female, Route: Oral inactive; negative | End Point: In vivo micronucleus, Test System: Micronucleated normochromatic erythrocytes, Species: Mouse, Strain/Sex: B6C3F1 / Male, Route: Oral inactive; negative | Test System: AMES SALMONELLA TYPHIMURIUM, Strain/Indicator: TA97A, Metabolic Activation: NONE, Method: STANDARD PLATE inactive; negative | Test System: AMES SALMONELLA TYPHIMURIUM, Strain/Indicator: TA97A, Metabolic Activation: RAT, LIVER, S-9, AROCLOR 1254, Method: STANDARD PLATE inactive; negative | Test System: AMES SALMONELLA TYPHIMURIUM, Strain/Indicator: TA98, Metabolic Activation: NONE, Method: STANDARD PLATE inactive; negative | Test System: AMES SALMONELLA TYPHIMURIUM, Strain/Indicator: TA98, Metabolic Activation: RAT, LIVER, S-9, AROCLOR 1254, Method: STANDARD PLATE inactive; negative | Test System: AMES SALMONELLA TYPHIMURIUM, Strain/Indicator: TA100, Metabolic Activation: NONE, Method: STANDARD PLATE inactive; negative | Test System: AMES SALMONELLA TYPHIMURIUM, Strain/Indicator: TA100, Metabolic Activation: RAT, LIVER, S-9, AROCLOR 1254, Method: STANDARD PLATE inactive; negative | Test System: AMES SALMONELLA TYPHIMURIUM, Strain/Indicator: TA1535, Metabolic Activation: NONE, Method: STANDARD PLATE inactive; negative | Test System: AMES SALMONELLA TYPHIMURIUM, Strain/Indicator: TA1535, Metabolic Activation: RAT, LIVER, S-9, AROCLOR 1254, Method: STANDARD PLATE inactive; negative | Test System: Ames Salmonella typhimurium, Strain/Indicator: TA97, Metabolic Activation: Hamster, Liver, S-9, Aroclor 1254 (10%), Method: Preincubation inactive; negative | Test System: Ames Salmonella typhimurium, Strain/Indicator: TA97, Metabolic Activation: Hamster, Liver, S-9, Aroclor 1254 (30%), Method: Preincubation inactive; negative | Test System: Ames Salmonella typhimurium, Strain/Indicator: TA97, Metabolic Activation: None, Method: Preincubation inactive; negative | Test System: Ames Salmonella typhimurium, Strain/Indicator: TA97, Metabolic Activation: Rat, Liver, S-9, Aroclor 1254 (10%), Method: Preincubation inactive; negative | Test System: Ames Salmonella typhimurium, Strain/Indicator: TA97, Metabolic Activation: Rat, Liver, S-9, Aroclor 1254 (30%), Method: Preincubation inactive; negative | Test System: Ames Salmonella typhimurium, Strain/Indicator: TA98, Metabolic Activation: Hamster, Liver, S-9, Aroclor 1254 (10%), Method: Preincubation inactive; negative | Test System: Ames Salmonella typhimurium, Strain/Indicator: TA98, Metabolic Activation: Hamster, Liver, S-9, Aroclor 1254 (30%), Method: Preincubation inactive; negative | Test System: Ames Salmonella typhimurium, Strain/Indicator: TA98, Metabolic Activation: None, Method: Preincubation inactive; negative | Test System: Ames Salmonella typhimurium, Strain/Indicator: TA98, Metabolic Activation: Rat, Liver, S-9, Aroclor 1254 (10%), Method: Preincubation inactive; negative | Test System: Ames Salmonella typhimurium, Strain/Indicator: TA98, Metabolic Activation: Rat, Liver, S-9, Aroclor 1254 (30%), Method: Preincubation inactive; negative | Test System: Ames Salmonella typhimurium, Strain/Indicator: TA100, Metabolic Activation: Hamster, Liver, S-9, Aroclor 1254 (10%), Method: Preincubation inactive; negative | Test System: Ames Salmonella typhimurium, Strain/Indicator: TA100, Metabolic Activation: Hamster, Liver, S-9, Aroclor 1254 (30%), Method: Preincubation inactive; negative | Test System: Ames Salmonella typhimurium, Strain/Indicator: TA100, Metabolic Activation: None, Method: Preincubation inactive; negative | Test System: Ames Salmonella typhimurium, Strain/Indicator: TA100, Metabolic Activation: Rat, Liver, S-9, Aroclor 1254 (10%), Method: Preincubation inactive; negative | Test System: Ames Salmonella typhimurium, Strain/Indicator: TA100, Metabolic Activation: Rat, Liver, S-9, Aroclor 1254 (30%), Method: Preincubation inactive; negative | Test System: Ames Salmonella typhimurium, Strain/Indicator: TA1535, Metabolic Activation: Hamster, Liver, S-9, Aroclor 1254 (10%), Method: Preincubation inactive; negative | Test System: Ames Salmonella typhimurium, Strain/Indicator: TA1535, Metabolic Activation: Hamster, Liver, S-9, Aroclor 1254 (30%), Method: Preincubation inactive; negative | Test System: Ames Salmonella typhimurium, Strain/Indicator: TA1535, Metabolic Activation: None, Method: Preincubation inactive; negative | Test System: Ames Salmonella typhimurium, Strain/Indicator: TA1535, Metabolic Activation: Rat, Liver, S-9, Aroclor 1254 (10%), Method: Preincubation inactive; negative | Test System: Ames Salmonella typhimurium, Strain/Indicator: TA1535, Metabolic Activation: Rat, Liver, S-9, Aroclor 1254 (30%), Method: Preincubation inactive; negative | Test System: CHINESE HAMSTER V-79, Strain/Indicator: V-79/6-THIOGUANINE (HGPRT), Metabolic Activation: NONE, Method: PREINCUBATION inactive; negative | Test System: CHINESE HAMSTER V-79, Strain/Indicator: V-79/6-THIOGUANINE (HGPRT), Metabolic Activation: RAT, LIVER, S-9, Method: PREINCUBATION inactive; negative | Test System: E. coli, Strain/Indicator: WP2 IC185 trpE65, Metabolic Activation: None, Method: Plate incorporation (Test material solvent: ethanol) inactive; negative | Test System: E. coli, Strain/Indicator: WP2 IC202 trpE65 oxyR/pKM101, Metabolic Activation: None, Method: Plate incorporation (Test material solvent: ethanol) inactive; negative

Cc1cc(-c2ccc(N/N=C3\C(=O)c4c(O)cc(S(=O)(=O)O)cc4C=C3S(=O)(=O)O)c(C)c2)ccc1N/N=C1\C(=O)c2c(O)cc(S(=O)(=O)O)cc2C=C1S(=O)(=O)O
inactive: Test System: AMES SALMONELLA TYPHIMURIUM, Strain/Indicator: TA98, Metabolic Activation: HAMSTER, LIVER, S-9, AROCLOR 1254 (10%), Method: PREINCUBATION inactive; negative | [1] inactive; negative | Test System: AMES SALMONELLA TYPHIMURIUM, Strain/Indicator: TA98, Metabolic Activation: RAT, LIVER, S-9, AROCLOR 1254 (10%), Method: PREINCUBATION inactive; negative | Test System: AMES SALMONELLA TYPHIMURIUM, Strain/Indicator: TA100, Metabolic Activation: HAMSTER, LIVER, S-9, AROCLOR 1254 (10%), Method: PREINCUBATION inactive; negative | [2] inactive; negative | Test System: AMES SALMONELLA TYPHIMURIUM, Strain/Indicator: TA100, Metabolic Activation: RAT, LIVER, S-9, AROCLOR 1254 (10%), Method: PREINCUBATION inactive; negative | Test System: AMES SALMONELLA TYPHIMURIUM, Strain/Indicator: TA1535, Metabolic Activation: HAMSTER, LIVER, S-9, AROCLOR 1254 (10%), Method: PREINCUBATION inactive; negative | Test System: AMES SALMONELLA TYPHIMURIUM, Strain/Indicator: TA1535, Metabolic Activation: NONE, Method: PREINCUBATION inactive; negative | Test System: AMES SALMONELLA TYPHIMURIUM, Strain/Indicator: TA1535, Metabolic Activation: RAT, LIVER, S-9, AROCLOR 1254 (10%), Method: PREINCUBATION inactive; negative | Test System: AMES SALMONELLA TYPHIMURIUM, Strain/Indicator: TA1537, Metabolic Activation: HAMSTER, LIVER, S-9, AROCLOR 1254 (10%), Method: PREINCUBATION inactive; negative | Test System: AMES SALMONELLA TYPHIMURIUM, Strain/Indicator: TA1537, Metabolic Activation: NONE, Method: PREINCUBATION inactive; negative | Test System: AMES SALMONELLA TYPHIMURIUM, Strain/Indicator: TA1537, Metabolic Activation: RAT, LIVER, S-9, AROCLOR 1254 (10%), Method: PREINCUBATION inactive; negative | Test System: AMES SALMONELLA TYPHIMURIUM, Strain/Indicator: TA1538, Metabolic Activation: RAT, LIVER, S-9, AROCLOR 1254, Method: STANDARD PLATE inactive; negative

C/C=C\C(=O)O[C@@H]1C[C@H]2O[C@@H]3C=C(C)C(=O)C[C@]3(C)[C@]1(C)[C@]21CO1
inactive: [1] inactive; negative | Test System: AMES SALMONELLA TYPHIMURIUM, Strain/Indicator: TA98, Metabolic Activation: RAT, LIVER, S-9, AROCLOR 1254, Method: PREINCUBATION inactive; negative | [2] inactive; negative | Test System: AMES SALMONELLA TYPHIMURIUM, Strain/Indicator: TA100, Metabolic Activation: RAT, LIVER, S-9, AROCLOR 1254, Method: PREINCUBATION inactive; negative
